Reference: US10947229B2, “Dimethyl amino azetidine amides as JAK inhibitors” (THERAVANCE BIOPHARMA R&D IP, LLC, priority 2018, dated 2021)

How the values were obtained:
[1] = test system: spontaneous periostin secretion; assay: Inhibition of spontaneous periostin secretion in human 3D airway cultures from asthmatic donors; type: cell-based; conditions: 192 h, 8 days, 3 or 4 donors
Description: EpiAirway tissue cultures were obtained from Mattek (AIR-100). Cells were derived from asthmatic donors that spontaneously secrete periostin, a matricellular protein associated with Th2 mediated asthma (eosinophilic), and interleukin-6 (IL-6), an inflammatory cytokine that plays a role in both Th2 and non-Th2 related asthma. In a cell culture insert, human derived tracheal/bronchial epithelial cells were grown and differentiated on a porous membrane support, allowing an air-liquid interface with warmed culture medium below the cells and a gaseous test atmosphere above. Tissues were cultured in maintenance media ([…]) in a 37° C., 5% CO2 humidified incubator. Four donors were tested. On Day 0, tissue cultures were treated with test compounds in liquid interface at 10 μM, 1 μM and/or 0.1 μM. Compounds were diluted in dimethyl sulfoxide (DMSO, Sigma) to a final concentration of 0.1%. DMSO at 0.1% was used as a vehicle control. Tissue cultures were maintained for 8 days. Media was replaced every 2 days with fresh media containing compounds. On Day 8, supernatants were collected for analysis. […] Data is expressed as % Inhibition+/-standard deviation (±STDV). Percent inhibition was determined by compound inhibitory potency against spontaneous secretion of periostin and IL-6 compared to vehicle treated cells. […]

[2] = Lung S9 metabolism; type: in vitro ADME, human
Description: The time 0, 15, 30, and 60 minute samples were analyzed for parent compound by high resolution LC-MS/MS. Lung S9 fractions from human (lot 1410245) were purchased from XenoTech LLC (Lenexa, Kans.). NADPH (Sigma Aldrich, N1630) and 3-phosphoadenosine 5-phosphosulfate (PAPS) (Sigma Aldrich, A1651) were purchased from Sigma Aldrich (St. Louis, Mo.). Acetonitrile and water were obtained from VWR (Radnor, Pa.) and were of HPLC grade or better. Raloxifene and formic acid was purchased from Sigma Aldrich (St. Louis, Mo.). Lung S9 incubations were performed in a water bath at 37° C. in a 96-well polypropylene plate. […] Louis, Mo.), 3 mM magnesium chloride (Sigma Aldrich, M1028) and in the presence of 100 μM PAPS (Sigma-Aldrich, St. […] Incubation volumes consisted of 400 μL and time points were taken at 0, 15, 30, and 60 minutes by the removal of a 70 μL aliquot and dilution into 140 μL acetonitrile (0% formic acid). All samples were centrifuged at 2250 g for 10 minutes at 5° C. Supernatant […] was taken from the centrifuged samples and diluted into 100 μL HPLC water containing internal standard. The samples were run on a Dionex Ultimate 3000 Auto sampler and analyzed using a Thermo Q-Exactive High Resolution Mass Spectrometer (Thermo, Waltham, Mass.) in Full Scan mode in conjunction with an Atlantis T3 column 3 μM-2.1×50 mm (Waters Inc., 186003717). Mobile Phase A consisted of Water+0.2% formic acid and Mobile Phase B consisted of acetonitrile +0.2% formic acid. Peak integration was accomplished using Gubbs GMSU software (Gubbs Inc., Alpharetta, Ga.). For each sample, peak area ratios were calculated by dividing the analyte peak area by the internal standard peak area. For each incubation, the peak area ratios of the analytes in each t0 was set to 100%, and the peak areas ratios from the 60 minute samples were converted to percentages remaining relative to the corresponding t0. Determination of sulfate metabolite formation was made qualitatively by observation of early-eluting peak in the parent ion channel which, based on historical internal data, corresponded to the O-sulfate metabolite of each parent compound.

[3] = test system: spontaneous IL-6 secretion; assay: Inhibition of spontaneous IL-6 secretion in human 3D airway cultures from asthmatic donors; type: cell-based; conditions: 192 h, 8 days, 3 or 4 donors
Description: EpiAirway tissue cultures were obtained from Mattek (AIR-100). Cells were derived from asthmatic donors that spontaneously secrete periostin, a matricellular protein associated with Th2 mediated asthma (eosinophilic), and interleukin-6 (IL-6), an inflammatory cytokine that plays a role in both Th2 and non-Th2 related asthma. In a cell culture insert, human derived tracheal/bronchial epithelial cells were grown and differentiated on a porous membrane support, allowing an air-liquid interface with warmed culture medium below the cells and a gaseous test atmosphere above. Tissues were cultured in maintenance media ([…]) in a 37° C., 5% CO2 humidified incubator. Four donors were tested. On Day 0, tissue cultures were treated with test compounds in liquid interface at 10 μM, 1 μM and/or 0.1 μM. Compounds were diluted in dimethyl sulfoxide (DMSO, Sigma) to a final concentration of 0.1%. DMSO at 0.1% was used as a vehicle control. Tissue cultures were maintained for 8 days. Media was replaced every 2 days with fresh media containing compounds. On Day 8, supernatants were collected for analysis. Supernatant samples were assayed for periostin and interleukin-6 (IL-6) using luminex analysis (EMD Millipore). Data is expressed as % Inhibition+/-standard deviation (±STDV). Percent inhibition was determined by compound inhibitory potency against spontaneous secretion of periostin and IL-6 compared to vehicle treated cells. Data is the average from 3 or 4 donors.

[4] = test system: IFNγ induced CXCL9 secretion; assay: Inhibition of IFNγ induced CXCL9 in human 3D airway cultures; type: cell-based; conditions: 192 h, 8 days, 4 donors
Description: (§1) EpiAirway tissue cultures were obtained from Mattek (AIR-100). Cultures were derived from asthmatic donors. In a cell culture insert, human derived tracheal/bronchial epithelial cells were grown and differentiated on a porous membrane support, allowing an air-liquid interface with warmed culture medium below the cells and a gaseous test atmosphere above. Tissues were cultured in maintenance media ([…]) in a 37° C., 5% CO2 humidified incubator. Four donors were tested. On Day 0, tissue cultures were treated with test compounds in liquid interface at 10 μM, 1 μM and/or 0.1 μM. Compounds were diluted in dimethyl sulfoxide (DMSO, Sigma) to a final concentration of 0.1%. DMSO at 0.1% was used as a vehicle control. […] Tissue cultures were maintained for 8 days. Media was replaced every 2 days with fresh media containing compounds and IFNγ or IL-27. On Day 8, tissue cultures and supernatants were collected for analysis. Supernatant samples were assayed for CXCL10 (IP-10) and CXCL9 (MIG) using luminex analysis (EMD Millipore). Data is expressed as % Inhibition+/-standard deviation (±STDV). Percent inhibition was determined by compound inhibitory potency against IFNγ or IL-27 induced CXCL10 or CXCL9 secretion compared to vehicle treated cells. Data is the average from 4 donors.

[5] = test system: IL-27 induced CXCL9 secretion; assay: Inhibition of IL-27 induced CXCL9 in human 3D airway cultures; type: cell-based; conditions: 192 h, 8 days, 4 donors
Description: as §1

Question: Which results are given for `CCc1cc(O)ccc1-c1ccc2c(-c3nc4c([nH]3)CN(C(C)C)[C@H](C(=O)N3CC(N(C)C)C3)C4)n[nH]c2c1` [Compound 1, (S)-(3-(dimethylamino)azetidin-1-yl)(2-(6-(2-ethyl-4-hydroxyphenyl)-1H-indazol-3-yl)-5-isopropyl-4,5,6,7-tetrahydro-3H-imidazo[4,5-c]pyridin-6-yl)methanone]?
Answer: inhibition at 1 µM ([1]; 1 μM): 40%; inhibition at 10 µM ([1]; 10 μM): 62%; Compound Remaining at 60 min (%) ([2]; human lung S9, 1 μM compound, 1 mg/mL S9 protein, 60 min): 81%; Sulfate Appearance ([2]; human lung S9, qualitative O-sulfate metabolite peak): Yes; microsomal CLint at 1 µM ([2]; human lung S9 fraction, pH 7.4, human lung S9, 1 μM compound, 1 mg/mL S9 protein, NADPH and PAPS, read-out: Clearance): 3.5 µL/min/mg; inhibition at 0.1 µM ([3]; 0.1 μM): 10%; inhibition at 1 µM ([3]; 1 μM): 70%; inhibition at 10 µM ([3]; 10 μM): 91%; inhibition at 0.1 µM ([4]; 0.1 μM): 16%; inhibition at 1 µM ([4]; 1 μM): 93%; inhibition at 10 µM ([4]; 10 μM): 100%; inhibition at 0.1 µM ([5]; 0.1 μM): 52%; inhibition at 1 µM ([5]; 1 μM): 97%; inhibition at 10 µM ([5]; 10 μM): 100%
